Measured values reported in patent US20040034019A1, “Piperazine and piperidine derivatives” (priority 2002, published 2004).
Counter-ions that a name gives are not always drawn.

Test system: rat embryo ventral mesencephalic cells
Experiment: Neuroprotection assay (NMDA neuroexcitotoxic injury, high affinity 3H-dopamine uptake)
Type: cell-based, Sprague-Dawley rat
Details: embryonic day 15 rat VM cell culture, NMDA (100-400 μM) for 20 hours
Excerpt: The neuroprotective activity of the compounds of this invention may be assayed using rat embryo ventral mesencephalic cells in culture which are subsequently exposed to the glutamate receptor agonist NMDA. This assay is described in detail in the example section.
The ventral mesencephalic region was dissected out of embryonic day 15 Sprague-Dawley rat embryos (Harlan), dissociated into single cell suspension by a combination of trypsinization and trituration (Costantini et al., Neurobiol Dis., pp. 97-106 (1998). Dissociated VM cells were plated into poly-L-ornithine-coated 96-well plates at a density of 85,000 cells/well in 100 uL of DMEM supplemented with 18% heat-inactivated horse serum, 0.24% glucose, 2 mM glutamine and 50 u/ml penicillin/streptomycin and incubated in a 5% CO2 incubator. After one day in culture (DIV1), the medium was replaced with 100 μL of a defined medium (DMEM supplemented with 1× N2 cocktail (Gibco-BRL), 0.12% glucose, 2 mM glutamine, and 50 units/ml penicillin/streptomycin) containing DMSO or various concentrations of the compounds of this invention. On DIV5, neuroexcitotoxic injury was induced by the addition of various concentrations of the glutamate receptor agonist NMDA (100-400 μM). Cultures were incubated with the neurotoxin for 20 hours and the effects of neurophilin compounds were assessed using high affinity ^3H-dopamine uptake according to a procedure published by Park and Mytilineou [Brain Res., 599, pp. 83-97 (1992)].

Compound	EC50
CCN1CCCC[C@H]1C(=O)N1C[C@@H]2C[C@H]1CN2Cc1ccccc1 (stereo in doubt) [Compound 24, 1-(5-benzyl-2,5-diaza-bicyclo[2.2.1]-hept-2-yl)-1-((S)-1-ethyl-piperidino-2-yl)-methanone]	> 500 nM
CCN1CCCC[C@H]1C(=O)N1CCN(c2ccccn2)CC1 [Compound 2]	> 500 nM
CN1CCC=C(C(=O)N2CCN(C(c3ccccc3)c3ccccc3)CC2)C1 [Compound 4]	> 500 nM
O=C([C@@H]1CCCN1Cc1ccccc1)N1CCN(C(c2ccccc2)c2ccccc2)CC1 [Compound 7]	< 100 nM
CN1CCC[C@H]1C(=O)N1CCN(C(c2ccccc2)c2ccccc2)CC1 [Compound 8]	> 500 nM
CN1CCC(C(=O)N2CCN(C(c3ccccc3)c3ccccc3)CC2)CC1 [Compound 11]	> 500 nM
CCN1CCCC[C@H]1C(=O)N1C[C@@H]2C[C@H]1CN2C(c1ccccc1)c1ccccc1 [Compound 17, 1-[(1S, 4S)-5-(1,1-Diphenylmethyl)-5-diazabicyclo[2.2.1]-hept-2-yl]-1-((S)-1-ethylpiperidin-2-yl)methanone]	100 to 500 nM
O=C1C[C@@H](C(=O)N2CCC(Cc3ccccc3)CC2)N(Cc2ccccc2)C1 [Compound 29, (2S)-1-Benzyl-5-(4-benzylpiperidine-1-carbonyl)-pyrrolidin-3-one]	100 to 500 nM
CON=C1C[C@@H](C(=O)N2CCC(Cc3ccccc3)CC2)N(Cc2ccccc2)C1 [Compound 31, (2S)-1-Benzyl-5-(4-benzylpiperidine-1-carbonyl)-pyrrolidin-3-one O-methyl-oxime]	100 to 500 nM
CCN1CCCC[C@H]1C(=O)N1CCN(c2ccccc2)CC1 [Compound 39, ((2S)-1-Ethylpiperidin-2-yl)-(4-phenylpiperazin-1-yl)-methanone dihydrochloride]	< 100 nM
CCN1CCCC[C@H]1C(=O)N1CCN(C(c2ccccc2)c2ccc(F)cc2)CC1 (stereo partly drawn) [Compound 42, ((2S)-1-Ethylpiperidin-2-yl)-{4-[(4-fluorophenyl)phenylmethy]-piperazin-1-yl}-methanone dihydrochloride]	< 100 nM
O=C([C@@H]1CCCN1Cc1ccccc1)N1CCN(C(c2ccc(F)cc2)c2ccc(F)cc2)CC1 [Compound 51, ((2S)-1-Benzylpyrrolidin-2-yl)-{4-bis-(4-fluorophenyl)methyl]-piperazin-1-yl}-methanone dihydrochloride]	> 500 nM
C=CCN1CCCC[C@H]1C(=O)N1CCN(C(c2ccc(F)cc2)c2ccc(F)cc2)CC1 [Compound 64, ((2S)-1-Allylpiperidin-2-yl)-{4-[bis-(4-fluorophenyl)methyl]-piperazin-1-yl}-methanone]	> 500 nM
CCN1CCCC[C@H]1C(=O)N1CCN(CCCc2ccccc2)CC1 [Compound 70, ((2S)-1-Ethylpiperidin-2-yl)-[4-(3-phenylpropyl)-piperazin-1-yl]-methanone dihydrochloride]	100 to 500 nM
CCN1CCCC[C@H]1C(=O)N1CCN(Cc2ccc(Cl)cc2)CC1 [Compound 72, [4-(4-Chlorobenzyl)-piperazin-1-yl]-((2S)-1-ethylpiperidin-2-yl)-methanone dihydrochloride]	> 500 nM
CCN1CCCC[C@H]1C(=O)N1CCN(Cc2cccs2)CC1 [Compound 73, ((2S)-1-Ethylpiperidin-2-yl)-(4-thiophen-2-ylmethylpiperazin-1-yl)-methanone dihydrochloride]	> 500 nM
CCN1CCCC[C@H]1CN1CCN(C(c2ccc(F)cc2)c2ccc(F)cc2)CC1 [Compound 102, 1-[Bis-(4-fluorophenyl)methyl)-4-((2S)-1-ethylpiperidin-2-ylmethyl)-piperazine.]	< 100 nM
CN1CSC(C)(C)[C@H]1C(=O)N1CCC(Cc2ccccc2)CC1 [Compound 200]	100 to 500 nM
CCN1CC=C[C@H]1C(=O)N1CCN(C(c2ccc(F)cc2)c2ccc(F)cc2)CC1 [Compound 201]	> 500 nM
CCN1C[C@H]2C[C@@H]2C1C(=O)N1CCN(C(c2ccc(F)cc2)c2ccc(F)cc2)CC1 (some centres unmarked) [Compound 203]	100 to 500 nM

Compound	EC50
CCN1CC[C@H](C)[C@H]1C(=O)N1CCN(C(c2ccc(F)cc2)c2ccc(F)cc2)CC1 [Compound 205]	< 100 nM
CN1[C@@H](C(=O)N2CCC(Cc3ccccc3)CC2)CC[C@H]1c1ccccc1 [Compound 206]	< 100 nM
CCN1C(C)CC[C@H]1C(=O)N1CCN(C(c2ccc(F)cc2)c2ccc(F)cc2)CC1 (some centres unmarked) [Compound 207]	100 to 500 nM
CCN1CCC[C@]1(C)C(=O)N1CCN(C(c2ccc(F)cc2)c2ccc(F)cc2)CC1 [Compound 209]	100 to 500 nM
CCN1CSC[C@H]1C(=O)N1CCN(C(c2ccc(F)cc2)c2ccc(F)cc2)CC1 [Compound 211]	> 500 nM
CCN1[C@@H](C(=O)N2CCN(C(c3ccc(F)cc3)c3ccc(F)cc3)CC2)CC[C@H]1c1ccccc1 [Compound 213]	> 500 nM
CCN1C[C@H](c2ccccc2)C[C@H]1C(=O)N1CCN(C(c2ccc(F)cc2)c2ccc(F)cc2)CC1 [Compound 215]	> 500 nM
CN1CSC(C)(C)[C@H]1C(=O)N1CCN(C(c2ccc(F)cc2)c2ccc(F)cc2)CC1 [Compound 216]	> 500 nM
CCN1CC[C@@H](c2ccccc2)[C@H]1C(=O)N1CCN(C(c2ccc(F)cc2)c2ccc(F)cc2)CC1 [Compound 217]	> 500 nM
O=C([C@@H]1C=CCN1Cc1ccccc1)N1CCC(Cc2ccccc2)CC1 [Compound 219]	100 to 500 nM
O=C(C1[C@H]2C[C@@H]2CN1Cc1ccccc1)N1CCC(Cc2ccccc2)CC1 (some centres unmarked) [Compound 221]	< 100 nM
CN1[C@@H](C(=O)N2CCN(C(c3ccc(F)cc3)c3ccc(F)cc3)CC2)CC[C@H]1c1ccccc1 [Compound 222]	> 500 nM
C[C@H]1CCN(Cc2ccccc2)[C@@H]1C(=O)N1CCC(Cc2ccccc2)CC1 [Compound 223]	< 100 nM
CN1C[C@H](c2ccccc2)C[C@H]1C(=O)N1CCN(C(c2ccc(F)cc2)c2ccc(F)cc2)CC1 [Compound 224]	> 500 nM
CCN1[C@@H](c2ccccc2)CC[C@H]1C(=O)N1CCN(C(c2ccc(F)cc2)c2ccc(F)cc2)CC1 [Compound 225]	< 100 nM
CC1CC[C@@H](C(=O)N2CCC(Cc3ccccc3)CC2)N1Cc1ccccc1 (some centres unmarked) [Compound 227]	100 to 500 nM
CN1CSC(C)(C)[C@@H]1C(=O)N1CCC(Cc2ccccc2)CC1 [Compound 228]	> 500 nM
C[C@@]1(C(=O)N2CCC(Cc3ccccc3)CC2)CCCN1Cc1ccccc1 [Compound 229]	> 500 nM
CN1CSC(C)(C)[C@@H]1C(=O)N1CCN(C(c2ccc(F)cc2)c2ccc(F)cc2)CC1 [Compound 230]	> 500 nM
O=C([C@H]1CC[C@@H](c2ccccc2)N1Cc1ccccc1)N1CCC(Cc2ccccc2)CC1 [Compound 231]	100 to 500 nM

Compound	EC50
CCN1CC[C@H]1C(=O)N1CCC(Cc2ccccc2)CC1 [Compound 232]	100 to 500 nM
O=C([C@@H]1CC[C@H](c2ccccc2)N1Cc1ccccc1)N1CCC(Cc2ccccc2)CC1 [Compound 233]	100 to 500 nM
CCN1CC=C[C@H]1C(=O)N1CCC(Cc2ccccc2)CC1 [Compound 234]	> 500 nM
O=C([C@@H]1[C@H](c2ccccc2)CCN1Cc1ccccc1)N1CCC(Cc2ccccc2)CC1 [Compound 235]	> 500 nM
CCN1C[C@H]2C[C@@H]2C1C(=O)N1CCC(Cc2ccccc2)CC1 (some centres unmarked) [Compound 236]	100 to 500 nM
O=C([C@@H]1C=CCN1Cc1ccccc1)N1CCN(C(c2ccc(F)cc2)c2ccc(F)cc2)CC1 [Compound 237]	> 500 nM
CCN1CC[C@H](C)[C@H]1C(=O)N1CCC(Cc2ccccc2)CC1 [Compound 238]	< 100 nM
O=C(C1[C@H]2C[C@@H]2CN1Cc1ccccc1)N1CCN(C(c2ccc(F)cc2)c2ccc(F)cc2)CC1 (some centres unmarked) [Compound 239]	> 500 nM
CCN1C(C)CC[C@H]1C(=O)N1CCC(Cc2ccccc2)CC1 (some centres unmarked) [Compound 240]	< 100 nM
C[C@H]1CCN(Cc2ccccc2)[C@@H]1C(=O)N1CCN(C(c2ccc(F)cc2)c2ccc(F)cc2)CC1 [Compound 241]	> 500 nM
CCN1CCC[C@]1(C)C(=O)N1CCC(Cc2ccccc2)CC1 [Compound 242]	< 100 nM
CC1CC[C@@H](C(=O)N2CCN(C(c3ccc(F)cc3)c3ccc(F)cc3)CC2)N1Cc1ccccc1 (some centres unmarked) [Compound 243]	> 500 nM
CCN1CSC[C@H]1C(=O)N1CCC(Cc2ccccc2)CC1 [Compound 244]	> 500 nM
C[C@@]1(C(=O)N2CCN(C(c3ccc(F)cc3)c3ccc(F)cc3)CC2)CCCN1Cc1ccccc1 [Compound 245]	100 to 500 nM
CCN1[C@@H](C(=O)N2CCC(Cc3ccccc3)CC2)CC[C@H]1c1ccccc1 [Compound 246]	< 100 nM
O=C([C@H]1CC[C@@H](c2ccccc2)N1Cc1ccccc1)N1CCN(C(c2ccc(F)cc2)c2ccc(F)cc2)CC1 [Compound 247]	> 500 nM
CCN1[C@@H](c2ccccc2)CC[C@H]1C(=O)N1CCC(Cc2ccccc2)CC1 [Compound 248]	100 to 500 nM
O=C([C@@H]1CC[C@H](c2ccccc2)N1Cc1ccccc1)N1CCN(C(c2ccc(F)cc2)c2ccc(F)cc2)CC1 [Compound 249]	> 500 nM
CCN1CC(c2ccccc2)C[C@H]1C(=O)N1CCC(Cc2ccccc2)CC1 (some centres unmarked) [Compound 250]	> 500 nM
